ChEMBL document CHEMBL1201862, “PubChem BioAssay data set” (2004)
Activity calls are given as the source filed them.

Columns and labels:
[1] = target: T1, Coagulation factor XII (Homo sapiens, UniProt P00748); type: functional;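 note: activated factor XIIa alpha cleaving a fluorogenic AMC peptide substrate; inhibitor potency from loss of enzyme activity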
T1 sequence (P00748 whole entry): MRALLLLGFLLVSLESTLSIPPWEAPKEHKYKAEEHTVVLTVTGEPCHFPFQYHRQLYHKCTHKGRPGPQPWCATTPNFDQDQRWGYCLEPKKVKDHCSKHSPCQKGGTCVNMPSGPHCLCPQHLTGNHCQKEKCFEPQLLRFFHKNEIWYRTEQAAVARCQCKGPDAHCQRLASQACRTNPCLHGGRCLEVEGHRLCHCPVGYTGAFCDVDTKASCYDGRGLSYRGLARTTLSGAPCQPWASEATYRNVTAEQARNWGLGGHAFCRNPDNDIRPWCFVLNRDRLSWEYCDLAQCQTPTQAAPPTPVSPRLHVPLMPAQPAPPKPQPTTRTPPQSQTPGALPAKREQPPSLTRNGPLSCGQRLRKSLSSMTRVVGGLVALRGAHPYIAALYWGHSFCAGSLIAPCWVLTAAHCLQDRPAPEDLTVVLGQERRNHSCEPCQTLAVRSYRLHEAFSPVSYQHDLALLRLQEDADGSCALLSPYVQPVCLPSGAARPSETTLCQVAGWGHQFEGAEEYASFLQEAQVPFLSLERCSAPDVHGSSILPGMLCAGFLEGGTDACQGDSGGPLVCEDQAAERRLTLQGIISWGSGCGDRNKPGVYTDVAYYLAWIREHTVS

[2] = target: T2, Voltage-gated N-type calcium channel alpha-1B subunit/Amyloid beta A4 precursor protein-binding family A member 1 (Homo sapiens, UniProt Q00975+Q02410); type: protein assay
T2 sequence (Q00975 whole entry): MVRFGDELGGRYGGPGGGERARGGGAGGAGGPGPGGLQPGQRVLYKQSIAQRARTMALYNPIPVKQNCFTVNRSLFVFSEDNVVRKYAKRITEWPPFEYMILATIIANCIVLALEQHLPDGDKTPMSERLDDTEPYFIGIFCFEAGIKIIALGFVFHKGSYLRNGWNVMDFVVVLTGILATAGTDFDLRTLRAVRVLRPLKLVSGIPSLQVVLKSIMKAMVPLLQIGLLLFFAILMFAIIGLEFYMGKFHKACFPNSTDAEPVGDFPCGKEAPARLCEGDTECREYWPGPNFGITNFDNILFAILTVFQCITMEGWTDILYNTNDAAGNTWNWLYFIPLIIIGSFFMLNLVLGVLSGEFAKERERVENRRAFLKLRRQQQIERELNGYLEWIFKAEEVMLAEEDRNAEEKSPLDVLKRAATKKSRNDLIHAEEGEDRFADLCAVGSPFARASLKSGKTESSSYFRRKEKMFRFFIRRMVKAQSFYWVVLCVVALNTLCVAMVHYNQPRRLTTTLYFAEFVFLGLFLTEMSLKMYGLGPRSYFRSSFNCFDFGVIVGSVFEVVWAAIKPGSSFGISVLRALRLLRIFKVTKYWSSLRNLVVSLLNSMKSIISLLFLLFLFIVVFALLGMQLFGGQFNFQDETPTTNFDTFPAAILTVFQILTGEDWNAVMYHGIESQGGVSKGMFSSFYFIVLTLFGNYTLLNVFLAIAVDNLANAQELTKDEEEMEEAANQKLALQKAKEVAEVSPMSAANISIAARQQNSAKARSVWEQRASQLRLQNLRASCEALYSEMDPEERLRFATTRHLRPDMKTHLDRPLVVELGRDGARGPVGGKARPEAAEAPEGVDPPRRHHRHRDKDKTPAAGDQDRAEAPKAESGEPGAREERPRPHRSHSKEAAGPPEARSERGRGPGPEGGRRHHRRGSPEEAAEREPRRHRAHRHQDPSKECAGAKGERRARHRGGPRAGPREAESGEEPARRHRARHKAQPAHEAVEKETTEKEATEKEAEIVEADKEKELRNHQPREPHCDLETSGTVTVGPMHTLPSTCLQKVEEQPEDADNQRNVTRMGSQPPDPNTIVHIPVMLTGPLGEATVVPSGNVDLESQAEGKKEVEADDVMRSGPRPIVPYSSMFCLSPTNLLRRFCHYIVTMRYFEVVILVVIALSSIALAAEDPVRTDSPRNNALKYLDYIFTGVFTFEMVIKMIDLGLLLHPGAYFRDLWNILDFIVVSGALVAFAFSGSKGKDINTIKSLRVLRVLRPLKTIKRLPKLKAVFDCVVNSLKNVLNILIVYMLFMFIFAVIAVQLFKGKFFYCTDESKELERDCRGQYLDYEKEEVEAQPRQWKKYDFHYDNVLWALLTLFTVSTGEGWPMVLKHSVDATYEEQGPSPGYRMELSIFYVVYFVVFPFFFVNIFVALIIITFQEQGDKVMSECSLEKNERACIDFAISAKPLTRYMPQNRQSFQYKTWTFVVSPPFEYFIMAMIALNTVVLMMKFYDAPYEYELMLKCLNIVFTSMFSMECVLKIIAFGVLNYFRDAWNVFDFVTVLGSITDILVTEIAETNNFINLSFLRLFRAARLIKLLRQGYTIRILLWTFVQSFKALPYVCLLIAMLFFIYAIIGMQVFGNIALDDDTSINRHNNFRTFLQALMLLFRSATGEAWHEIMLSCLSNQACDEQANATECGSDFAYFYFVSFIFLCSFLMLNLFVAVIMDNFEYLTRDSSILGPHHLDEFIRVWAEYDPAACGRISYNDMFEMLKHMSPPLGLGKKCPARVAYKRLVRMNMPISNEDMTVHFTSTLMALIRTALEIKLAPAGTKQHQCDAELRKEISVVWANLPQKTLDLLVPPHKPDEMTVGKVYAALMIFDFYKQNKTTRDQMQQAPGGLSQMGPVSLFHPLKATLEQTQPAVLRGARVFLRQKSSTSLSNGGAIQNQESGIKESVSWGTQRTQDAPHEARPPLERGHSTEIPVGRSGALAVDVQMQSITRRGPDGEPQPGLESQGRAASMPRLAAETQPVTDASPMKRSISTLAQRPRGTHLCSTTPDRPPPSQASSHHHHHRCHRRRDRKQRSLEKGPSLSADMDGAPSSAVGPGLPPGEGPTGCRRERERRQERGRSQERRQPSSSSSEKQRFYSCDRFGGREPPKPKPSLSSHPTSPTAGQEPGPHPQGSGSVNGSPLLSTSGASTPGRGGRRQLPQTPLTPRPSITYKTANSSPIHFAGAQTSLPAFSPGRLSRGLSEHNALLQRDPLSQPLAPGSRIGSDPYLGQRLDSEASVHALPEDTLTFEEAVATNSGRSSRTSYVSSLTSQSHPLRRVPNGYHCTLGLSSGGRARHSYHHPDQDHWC
T2 sequence (Q02410 whole entry): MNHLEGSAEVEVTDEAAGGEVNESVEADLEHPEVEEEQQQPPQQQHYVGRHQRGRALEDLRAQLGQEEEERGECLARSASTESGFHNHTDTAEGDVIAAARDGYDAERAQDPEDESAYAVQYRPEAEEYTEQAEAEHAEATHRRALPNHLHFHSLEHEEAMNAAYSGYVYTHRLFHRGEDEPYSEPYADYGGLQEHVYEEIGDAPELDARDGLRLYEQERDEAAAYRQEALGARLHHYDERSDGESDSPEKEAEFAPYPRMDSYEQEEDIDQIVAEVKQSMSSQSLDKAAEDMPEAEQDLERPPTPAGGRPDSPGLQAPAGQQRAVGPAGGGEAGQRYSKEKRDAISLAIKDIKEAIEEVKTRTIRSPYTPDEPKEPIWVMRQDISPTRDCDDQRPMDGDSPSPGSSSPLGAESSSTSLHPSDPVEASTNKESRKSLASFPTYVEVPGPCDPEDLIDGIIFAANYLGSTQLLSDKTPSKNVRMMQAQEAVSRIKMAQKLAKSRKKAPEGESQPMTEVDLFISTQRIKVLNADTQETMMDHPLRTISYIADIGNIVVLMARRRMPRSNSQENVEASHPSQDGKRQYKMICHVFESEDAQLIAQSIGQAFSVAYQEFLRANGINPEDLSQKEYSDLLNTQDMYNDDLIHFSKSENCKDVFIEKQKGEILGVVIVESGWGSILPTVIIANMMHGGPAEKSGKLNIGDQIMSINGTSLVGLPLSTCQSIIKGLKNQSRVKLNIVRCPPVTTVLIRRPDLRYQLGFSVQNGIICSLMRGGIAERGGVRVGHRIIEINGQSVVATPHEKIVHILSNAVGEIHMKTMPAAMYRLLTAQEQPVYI

[3] = target: T2, Voltage-gated N-type calcium channel alpha-1B subunit/Amyloid beta A4 precursor protein-binding family A member 1; type: protein assay; remark: listed apart in the source
[4] = C. albicans growth with fluconazole, confirmation, fluorescence, retest (AID 2467); type: functional, cell-based
[5] = Luminescence Cell-Based Dose Retest to Confirm Inhibitors of Cancer Stem Cells. [Related pubchem assays (depositor defined):AID2717, AID2721]; type: functional; conditions: Homo sapiens
[6] = THP-1 cell cytotoxicity, dose response, cytotoxicity control for non-replicating M. tuberculosis project (AID 489025); type: functional
[7] = cells; type: functional
[8] = system: Vero; assay: cells; type: functional; conditions: Chlorocebus sabaeus
[9] = NIH-3T3 fibroblast cytotoxicity, dose response, cytotoxicity control, cell-based, fluorescence, Alamar Blue, secondary assay (AID 2327); type: functional;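 note: NIH-3T3 mouse fibroblasts cultured with fluconazole at 8 µg/mL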
[10] = Luminescence Cell-Based Dose Response HTS to Identify Inhibitors of 5'UTR Stem-Loop Driven Prion Protein mRNA Translation in H4 Neuroglioblastoma Cells. [Related pubchem assays: 1827 (Project Summary), 1813 (Primary HTS)]; type: functional
[11] = inhibitors of firefly luciferase expression or activity, dose response, H4 neuroglioma cells, luminescence (AID 1990); type: functional, cell-based
[12] = system: BJ; assay: cytotoxicity toward BJ-TERT-LT-ST fibroblasts, dose response, cell-based, RAS-independent, luminescence (AID 1935); type: functional; conditions: Homo sapiens;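 note: BJ fibroblasts immortalized with TERT plus LT and ST oncogenes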
[13] = system: BJ; assay: cells; type: functional, cell-based; conditions: Homo sapiens
[14] = inhibitors of SNCA 5'UTR-driven reporter translation, confirmation, H4 neuroglioma cells, luminescence (AID 1988); type: functional, cell-based
[15] = cytotoxicity in HEK-293T cells, dose response, cytotoxicity control for TCR NF-kB inhibitor project, luminescence, T-cell screen hits (AID 489026); type: functional, cell-based;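 note: cells exposed to compound about 14 hours before the viability readout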
[16] = cytotoxicity toward DRD oncogenic fibroblasts, dose response, cell-based, non-viral oncogenic, luminescence (AID 1934); type: functional; conditions: Homo sapiens
[17] = system: BJ; assay: cytotoxicity toward BJ-TERT fibroblasts, dose response, cell-based, RAS-independent, luminescence (AID 1933); type: functional; conditions: Homo sapiens
[18] = target: T3, Estrogen receptor (Homo sapiens, UniProt P03372);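 note: potency for inhibiting coactivator peptide recruitment to the receptor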
T3 sequence (P03372 whole entry): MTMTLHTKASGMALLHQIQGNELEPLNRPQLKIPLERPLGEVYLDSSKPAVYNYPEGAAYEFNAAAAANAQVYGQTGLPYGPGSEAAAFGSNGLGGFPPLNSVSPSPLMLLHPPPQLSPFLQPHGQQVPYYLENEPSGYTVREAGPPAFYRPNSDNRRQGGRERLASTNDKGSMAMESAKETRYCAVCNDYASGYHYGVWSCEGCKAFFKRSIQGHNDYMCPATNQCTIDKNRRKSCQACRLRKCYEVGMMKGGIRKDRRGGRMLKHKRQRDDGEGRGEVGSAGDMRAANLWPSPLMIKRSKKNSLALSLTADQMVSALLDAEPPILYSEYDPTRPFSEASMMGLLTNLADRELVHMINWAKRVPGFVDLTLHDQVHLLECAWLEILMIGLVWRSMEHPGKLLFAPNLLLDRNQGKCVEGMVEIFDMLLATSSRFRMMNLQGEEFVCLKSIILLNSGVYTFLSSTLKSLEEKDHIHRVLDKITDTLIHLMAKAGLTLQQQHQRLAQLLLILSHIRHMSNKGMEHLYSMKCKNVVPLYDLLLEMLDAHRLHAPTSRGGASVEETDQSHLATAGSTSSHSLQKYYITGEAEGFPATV

[19] = target: T4, Replicative DNA helicase DnaB (Mycobacterium tuberculosis, UniProt P9WMR3); assay: DnaB intein splicing inhibitors, dose response, biochemical, cell-free fluorescence (AID 449749); type: functional
T4 sequence (P9WMR3 whole entry): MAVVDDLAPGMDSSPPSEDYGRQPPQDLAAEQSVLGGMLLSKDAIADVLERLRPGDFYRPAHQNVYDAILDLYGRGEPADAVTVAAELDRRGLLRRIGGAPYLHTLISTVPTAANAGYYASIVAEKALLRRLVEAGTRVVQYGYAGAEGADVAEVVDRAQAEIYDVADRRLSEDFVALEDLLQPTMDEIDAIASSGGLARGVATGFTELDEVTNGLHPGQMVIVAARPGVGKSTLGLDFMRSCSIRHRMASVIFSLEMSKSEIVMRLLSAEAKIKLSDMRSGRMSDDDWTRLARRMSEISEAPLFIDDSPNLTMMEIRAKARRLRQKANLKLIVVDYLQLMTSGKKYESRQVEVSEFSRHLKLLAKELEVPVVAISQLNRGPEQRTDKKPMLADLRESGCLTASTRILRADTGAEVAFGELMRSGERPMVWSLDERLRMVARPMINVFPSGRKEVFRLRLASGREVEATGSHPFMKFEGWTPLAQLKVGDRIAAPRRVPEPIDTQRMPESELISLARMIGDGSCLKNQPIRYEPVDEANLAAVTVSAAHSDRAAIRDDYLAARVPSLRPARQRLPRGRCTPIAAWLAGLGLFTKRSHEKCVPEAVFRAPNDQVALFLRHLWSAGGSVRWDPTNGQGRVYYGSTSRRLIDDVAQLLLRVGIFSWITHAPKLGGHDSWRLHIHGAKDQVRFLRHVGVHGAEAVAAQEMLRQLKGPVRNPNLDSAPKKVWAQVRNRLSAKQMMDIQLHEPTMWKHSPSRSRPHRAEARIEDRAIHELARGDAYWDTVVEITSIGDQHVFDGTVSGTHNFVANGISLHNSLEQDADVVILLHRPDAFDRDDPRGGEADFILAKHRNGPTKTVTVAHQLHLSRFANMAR

[20] = target: T5, Protein RecA (Mycobacterium tuberculosis, UniProt P9WHJ3); assay: Fluorescence Cell-Free Homogeneous Dose Retest to Identify Inhibitors of RecA-Intein Splicing Activity. [Related pubchem assays (depositor defined):AID2097, AID2223, AID489010, AID492950]; type: functional
T5 sequence (P9WHJ3 whole entry): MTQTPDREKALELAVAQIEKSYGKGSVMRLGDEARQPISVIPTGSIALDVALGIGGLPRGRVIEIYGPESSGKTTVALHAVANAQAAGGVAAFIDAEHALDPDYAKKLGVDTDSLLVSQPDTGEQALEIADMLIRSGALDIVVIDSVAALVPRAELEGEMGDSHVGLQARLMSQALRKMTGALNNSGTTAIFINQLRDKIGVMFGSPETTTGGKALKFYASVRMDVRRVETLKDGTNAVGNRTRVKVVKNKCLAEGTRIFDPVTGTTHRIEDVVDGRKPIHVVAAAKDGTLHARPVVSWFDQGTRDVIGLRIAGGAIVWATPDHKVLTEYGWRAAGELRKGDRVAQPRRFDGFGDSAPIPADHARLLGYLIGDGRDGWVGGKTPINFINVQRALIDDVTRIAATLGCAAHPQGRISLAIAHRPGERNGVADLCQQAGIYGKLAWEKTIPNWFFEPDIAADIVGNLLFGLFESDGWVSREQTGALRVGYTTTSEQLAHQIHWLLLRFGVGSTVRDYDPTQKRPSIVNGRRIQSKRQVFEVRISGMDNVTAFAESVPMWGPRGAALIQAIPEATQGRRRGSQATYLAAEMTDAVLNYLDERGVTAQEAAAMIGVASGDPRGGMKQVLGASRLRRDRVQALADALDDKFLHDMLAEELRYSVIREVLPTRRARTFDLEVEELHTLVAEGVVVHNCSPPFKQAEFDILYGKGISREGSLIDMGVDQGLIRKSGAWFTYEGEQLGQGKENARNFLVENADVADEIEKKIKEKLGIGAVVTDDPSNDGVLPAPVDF

[21] = target: T6, Type-1 angiotensin II receptor (Homo sapiens, UniProt P30556); assay: AT1 receptor antagonists, dose response, selectivity assay for APJ receptor antagonist project, cell-based, uHTS hits (AID 463214); type: functional;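 note: antagonist potency against angiotensin II stimulated AT1 response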
T6 sequence (P30556 whole entry): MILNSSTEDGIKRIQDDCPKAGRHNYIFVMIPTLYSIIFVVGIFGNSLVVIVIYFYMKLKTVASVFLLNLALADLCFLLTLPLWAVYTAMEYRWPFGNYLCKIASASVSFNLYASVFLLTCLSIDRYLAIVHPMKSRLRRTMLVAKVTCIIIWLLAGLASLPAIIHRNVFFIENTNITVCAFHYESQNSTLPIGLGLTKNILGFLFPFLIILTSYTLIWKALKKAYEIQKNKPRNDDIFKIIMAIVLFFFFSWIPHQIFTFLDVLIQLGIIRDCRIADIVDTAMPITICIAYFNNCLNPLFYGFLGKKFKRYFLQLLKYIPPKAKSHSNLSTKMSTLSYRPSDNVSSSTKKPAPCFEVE

[22] = target: Beta-galactosidase (Escherichia coli, UniProt Q8VNN2); assay: PubChem AID 485352; type: functional
Chain of Beta-galactosidase (Q8VNN2 whole entry): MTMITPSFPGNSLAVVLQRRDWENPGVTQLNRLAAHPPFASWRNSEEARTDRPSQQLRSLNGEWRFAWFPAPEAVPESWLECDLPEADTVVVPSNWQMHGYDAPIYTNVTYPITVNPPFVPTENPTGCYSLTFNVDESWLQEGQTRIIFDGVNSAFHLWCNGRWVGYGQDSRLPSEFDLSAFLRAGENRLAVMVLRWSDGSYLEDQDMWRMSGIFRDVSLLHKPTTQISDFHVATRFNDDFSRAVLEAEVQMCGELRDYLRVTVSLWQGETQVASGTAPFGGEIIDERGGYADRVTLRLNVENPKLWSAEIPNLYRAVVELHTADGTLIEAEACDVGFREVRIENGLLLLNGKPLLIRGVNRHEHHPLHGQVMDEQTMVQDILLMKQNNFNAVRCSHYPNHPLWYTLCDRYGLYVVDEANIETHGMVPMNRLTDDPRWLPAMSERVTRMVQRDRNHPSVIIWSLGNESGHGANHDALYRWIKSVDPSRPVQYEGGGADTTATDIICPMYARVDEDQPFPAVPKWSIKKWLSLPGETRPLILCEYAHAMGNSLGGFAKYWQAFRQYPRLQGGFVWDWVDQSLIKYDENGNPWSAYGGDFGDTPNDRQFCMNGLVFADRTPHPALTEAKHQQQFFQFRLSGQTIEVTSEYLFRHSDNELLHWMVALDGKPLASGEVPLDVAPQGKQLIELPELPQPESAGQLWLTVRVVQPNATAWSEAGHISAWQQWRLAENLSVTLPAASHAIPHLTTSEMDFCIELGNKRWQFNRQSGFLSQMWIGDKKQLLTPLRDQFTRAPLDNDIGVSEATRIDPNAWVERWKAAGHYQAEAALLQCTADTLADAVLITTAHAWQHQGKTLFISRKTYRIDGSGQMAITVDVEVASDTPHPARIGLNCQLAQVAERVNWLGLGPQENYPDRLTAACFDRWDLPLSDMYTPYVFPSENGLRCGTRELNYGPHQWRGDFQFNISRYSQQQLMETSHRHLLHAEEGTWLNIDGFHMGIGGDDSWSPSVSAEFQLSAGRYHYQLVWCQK

[23] = target: Cytochrome P450 3A4 (Homo sapiens, UniProt P08684);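 note: CYP3A4 tested as one member of a cytochrome P450 panel screen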
Chain of Cytochrome P450 3A4 (P08684 whole entry): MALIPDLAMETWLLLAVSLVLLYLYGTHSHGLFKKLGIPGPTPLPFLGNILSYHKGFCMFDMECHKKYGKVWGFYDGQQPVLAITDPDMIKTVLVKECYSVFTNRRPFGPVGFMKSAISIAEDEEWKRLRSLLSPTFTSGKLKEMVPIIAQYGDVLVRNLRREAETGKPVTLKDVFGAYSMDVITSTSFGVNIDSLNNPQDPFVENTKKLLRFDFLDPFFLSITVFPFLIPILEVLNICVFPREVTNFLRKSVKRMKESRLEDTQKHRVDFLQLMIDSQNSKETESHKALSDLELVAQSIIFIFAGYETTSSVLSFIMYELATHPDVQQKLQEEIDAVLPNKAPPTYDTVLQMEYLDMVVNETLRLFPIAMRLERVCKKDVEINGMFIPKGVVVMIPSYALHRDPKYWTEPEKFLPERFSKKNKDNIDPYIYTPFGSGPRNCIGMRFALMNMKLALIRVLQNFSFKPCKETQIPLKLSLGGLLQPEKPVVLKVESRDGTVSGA

[24] = target: Induced myeloid leukemia cell differentiation protein Mcl-1 (Homo sapiens, UniProt Q07820); type: functional
Chain of Induced myeloid leukemia cell differentiation protein Mcl-1 (Q07820 whole entry): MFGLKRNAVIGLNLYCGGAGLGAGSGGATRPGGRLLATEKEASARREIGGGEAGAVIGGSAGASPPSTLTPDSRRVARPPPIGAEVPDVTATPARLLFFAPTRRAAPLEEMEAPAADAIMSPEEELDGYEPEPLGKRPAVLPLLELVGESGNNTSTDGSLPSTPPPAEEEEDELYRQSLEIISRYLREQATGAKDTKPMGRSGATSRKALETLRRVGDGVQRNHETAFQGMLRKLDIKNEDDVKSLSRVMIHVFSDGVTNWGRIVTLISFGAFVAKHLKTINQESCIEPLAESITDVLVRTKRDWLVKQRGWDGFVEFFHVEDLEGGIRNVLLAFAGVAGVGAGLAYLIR

Cc1cccc(Nc2cc(=O)[nH]c(=O)[nH]2)c1C
IC50 [1]: > 50 µM (inactive)

O=C(Nc1cnc(O)nc1O)c1ccc2c(c1)C(=O)N(c1cccc([N+](=O)[O-])c1)C2=O
IC50 [2]: > 50 µM (inactive)
IC50 [3]: 9.85 µM (active)

OC(CNCCc1ccc(C(F)(F)F)cc1)COc1ccc2ccccc2c1 (stereo not drawn)
EC50 [4]: > 38 µM (not active)
AC50 [5]: 3.34 µM (active)
CC50 [6]: > 40 µM (active)
IC50 [7]: 22.4 µM (active)
CC50 [8]: 16.6 µM (active)
EC50 [9]: 7.21 µM (active)

CCOc1ccc(N=C(N)Nc2nc(CSc3nnc(C)s3)cc(=O)[nH]2)cc1
IC50 [1]: > 50 µM (inactive)

CCOc1ccc(NC(=N)Nc2nc(O)cc(CSc3nnc(C)s3)n2)cc1
EC50 [10]: 0.291 µM (active)
EC50 [11]: 9.79 µM (active)
EC50 [12]: 1.37 µM (active)
AC50 [5]: 0.298 µM (active)
EC50 [13]: 20.6 µM (active)
EC50 [14]: 5.83 µM (active)
IC50 [15]: > 80 µM (inactive)
EC50 [16]: 0.597 µM (active)
EC50 [17]: 1.11 µM (active)

CCN(CC)C(=O)C(C(=O)c1cccc([N+](=O)[O-])c1)n1cc(Cl)ccc1=O (stereo not drawn)
EC50 [12]: > 150 µM (inconclusive)
EC50 [13]: > 150 µM (not active)
EC50 [16]: > 150 µM (not active)
EC50 [17]: > 150 µM (not active)

O=c1[nH]c(-c2ccc3c(c2)OCO3)nc2c1sc(=S)n2-c1ccccc1
IC50 [2]: > 50 µM (inactive)
IC50 [3]: 5.13 µM (active)

CCCc1nnc2n1N=C(c1ccc(-c3cc(Cl)ccc3Cl)o1)CS2
IC50 [18]: 13.4 µM (active)

CN1CCN(S(=O)(=O)c2ccc(Br)s2)CC1
IC50 [1]: > 50 µM (inactive)

O=C(CSc1nc2c(c(=O)n1-c1ccc(Br)cc1)SCC2)Nc1nccs1
IC50 [18]: > 50 µM (not active)

COc1cc(NC(=O)c2ccccc2F)ccc1NC(=O)c1cc2ccccc2o1
IC50 [2]: > 50 µM (inactive)
IC50 [3]: 15.9 µM (active)

COc1cccc(NC(=N)Nc2nc(O)cc(CSc3ccccn3)n2)c1
IC50 [15]: > 80 µM (inactive)

COC(=O)CS(=O)(=O)c1nnc([C@H](Cc2ccccc2)NC(=O)OC(C)(C)C)o1
AC50 [19]: 6.11 µM (active)
EC50 [20]: 7.24 µM (active)
IC50 [21]: 12.4 µM (active)
EC50 [22]: > 40 µM (inactive)
IC50 [1]: 8.95 µM (active)

COc1cc(OC)nc(NC(=O)C(C)C)n1
IC50 [18]: > 50 µM (not active)

CCCCOc1ccccc1C1CC(=O)NC2=C1C(=O)CCC2 (stereo not drawn)
AC50 [23]: 15.8 µM (inconclusive)
IC50 [15]: > 80 µM (inactive)

COC(Cn1c(C)c(C(C)=O)c(C(C)=O)c1C)OC
IC50 [1]: > 50 µM (inactive)

CC(/C=C/c1ccco1)=N\NC(=O)c1cc(C)[nH]n1
IC50 [2]: 11.8 µM (active)
IC50 [24]: 4.92 µM (active)
IC50 [3]: 4.52 µM (active)
